Reference: ChEMBL document CHEMBL3352089 (J Med Chem, 2014)

Assays:
[1] = Cytotoxicity against human HepG2 cells assessed as cell viability at 1 uM after 4 hrs by Cell-Titer Glo assay; assay type: cell-based; conditions: read-out: Activity
[2] = Cytotoxicity against human HepG2 cells assessed as cell viability at 10 uM after 4 hrs by Cell-Titer Glo assay; assay type: cell-based; conditions: read-out: Activity
[3] = Cytotoxicity against human HepG2 cells assessed as cell viability at 100 uM after 4 hrs by Cell-Titer Glo assay; assay type: cell-based; conditions: read-out: Activity
[4] = Cytotoxicity against human HepG2 cells assessed as cell viability at 1 uM after 24 hrs by Cell-Titer Glo assay; assay type: cell-based; conditions: read-out: Activity
[5] = Cytotoxicity against human HepG2 cells assessed as cell viability at 10 uM after 24 hrs by Cell-Titer Glo assay; assay type: cell-based; conditions: read-out: Activity
[6] = test system: T1, Activin receptor type-1 (Homo sapiens), Q04771 [Q207D]
T1 sequence (whole entry): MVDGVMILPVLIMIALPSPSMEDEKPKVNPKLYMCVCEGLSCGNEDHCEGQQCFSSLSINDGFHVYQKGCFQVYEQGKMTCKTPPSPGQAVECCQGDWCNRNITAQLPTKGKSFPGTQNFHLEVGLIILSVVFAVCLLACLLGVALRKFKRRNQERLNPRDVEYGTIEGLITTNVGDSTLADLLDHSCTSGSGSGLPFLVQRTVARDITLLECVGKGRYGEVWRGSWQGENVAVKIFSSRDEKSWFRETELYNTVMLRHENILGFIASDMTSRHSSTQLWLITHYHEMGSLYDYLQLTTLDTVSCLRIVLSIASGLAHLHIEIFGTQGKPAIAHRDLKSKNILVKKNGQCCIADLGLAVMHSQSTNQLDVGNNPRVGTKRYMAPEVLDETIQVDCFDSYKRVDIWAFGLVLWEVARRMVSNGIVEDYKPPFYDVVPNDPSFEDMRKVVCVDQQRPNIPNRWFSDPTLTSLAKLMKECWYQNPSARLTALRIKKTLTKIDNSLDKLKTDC

[7] = target: T2, TGF-beta receptor type-1 (Homo sapiens) (UniProt P36897)
T2 sequence (whole entry): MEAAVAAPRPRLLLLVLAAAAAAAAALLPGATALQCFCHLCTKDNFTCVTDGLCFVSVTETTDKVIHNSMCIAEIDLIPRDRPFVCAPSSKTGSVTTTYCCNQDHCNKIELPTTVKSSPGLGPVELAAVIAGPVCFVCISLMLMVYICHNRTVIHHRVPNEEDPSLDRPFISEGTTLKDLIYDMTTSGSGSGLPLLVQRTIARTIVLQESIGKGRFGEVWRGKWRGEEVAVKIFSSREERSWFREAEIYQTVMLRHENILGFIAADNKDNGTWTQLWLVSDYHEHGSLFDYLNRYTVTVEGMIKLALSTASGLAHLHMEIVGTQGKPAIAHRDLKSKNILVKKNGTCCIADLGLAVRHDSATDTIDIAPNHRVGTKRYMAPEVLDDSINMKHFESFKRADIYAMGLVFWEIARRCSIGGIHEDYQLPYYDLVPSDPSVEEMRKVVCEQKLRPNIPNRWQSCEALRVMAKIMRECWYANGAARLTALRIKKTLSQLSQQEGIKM
Description: Inhibition of purified ALK5 kinase (unknown origin) by RT-PCR analysis

[8] = Cytotoxicity against human HepG2 cells assessed as cell viability at 100 uM after 24 hrs by Cell-Titer Glo assay; assay type: cell-based; conditions: read-out: Activity

Row | Structure (SMILES) | viability at 4 h, 1 µM [1] | viability at 4 h, 10 µM [2] | viability at 4 h, 100 µM [3] | viability at 24 h, 1 µM [4] | viability at 24 h, 10 µM [5] | ΔTm [6] | ΔTm [7] | viability at 24 h, 100 µM [8]
1 | COc1cc(-c2cc(-c3ccc(N4CCNCC4)cc3)cnc2N)cc(OC)c1OC | > 75% | > 75% | > 75% | > 75% | > 75% | 15.1 °C | 13.9 °C | 
2 | COc1cc(-c2cc(-c3ccc(N4CCNCC4)cc3)cnc2C)cc(OC)c1OC | > 75% | > 75% | > 75% | > 75% | > 75% | 13.7 °C | 9.7 °C | > 75%
3 | COc1cc(-c2cncc(-c3ccc(N4CCNCC4)cc3)c2)cc(OC)c1OC | > 75% | > 75% |  | > 75% | > 75% | 14.1 °C | 10.4 °C | 
